In article PMC9132125 (Journal of natural products, 2016):
pIC50: −log10 of the molar value.

Legend:
[1] = system: KCL-22 and T315I KCL-22 CML cell lines; assay: Biological screening at 1 μM on the two CML cell lines; type: cell-based, human
[2] = system: T315I mutant KCL-22 CML cells; assay: MTS cell viability assay, imatinib-resistant T315I mutant KCL-22 CML cells; type: cell-based, human; conditions: 48 h exposure
GSK-3β = conditions: read-out: GSK-3β IC50; previously published; cited from earlier work
c-Src = c-Src (Homo sapiens, UniProt P12931); assay: Kinase assay in vitro; type: biochemical; conditions: recombinant protein, 33P-ATP
c-Src, sequence (P12931 whole entry): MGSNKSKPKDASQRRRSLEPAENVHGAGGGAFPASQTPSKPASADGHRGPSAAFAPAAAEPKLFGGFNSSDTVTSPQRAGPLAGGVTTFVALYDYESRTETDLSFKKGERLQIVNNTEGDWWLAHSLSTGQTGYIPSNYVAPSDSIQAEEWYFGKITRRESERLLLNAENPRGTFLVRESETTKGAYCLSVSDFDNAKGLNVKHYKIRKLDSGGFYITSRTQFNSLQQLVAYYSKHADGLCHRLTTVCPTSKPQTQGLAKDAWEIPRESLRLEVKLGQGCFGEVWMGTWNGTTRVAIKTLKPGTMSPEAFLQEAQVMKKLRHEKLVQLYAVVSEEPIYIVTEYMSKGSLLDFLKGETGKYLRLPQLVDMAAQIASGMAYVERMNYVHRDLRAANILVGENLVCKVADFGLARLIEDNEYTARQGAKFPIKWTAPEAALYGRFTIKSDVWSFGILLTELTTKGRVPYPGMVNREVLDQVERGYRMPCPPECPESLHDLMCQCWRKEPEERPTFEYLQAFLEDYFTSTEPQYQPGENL

SMILES | cytotoxic activity in the screening (in words) [1] | T315I mutant KCL-22 IC50 range (in words) [2] | pIC50 (GSK-3β) | c-Src IC50 range (in words) (c-Src)
O=C1Nc2ccccc2/C1=C1/Nc2ccccc2C1=O [compound 1, Indirubin, reference compound] | loss of activity | – | – | –
O=C1Nc2ccccc2/C1=C1/Nc2ccccc2/C1=N\O [compound 2] | loss of activity | – | – | –
CN(CCO/N=C1/C(=C2/C(=O)Nc3cc(Br)ccc32)Nc2ccccc21)CC(O)CO (stereo not drawn) [compound 17] | – | submicromolar range | 7.17 | picomolar
CN(CCO/N=C1/C(=C2/C(=O)Nc3cc(Br)ccc32)Nc2ccccc21)CC(O)CO.Cl (stereo not drawn) [compound 18] | – | submicromolar range | 7.64 | picomolar
O=C1Nc2cc(Br)ccc2/C1=C1/Nc2ccccc2/C1=N\OCCN1CCCC1 [compound 19] | – | submicromolar range | 7.59 | nanomolar
Cl.O=C1Nc2cc(Br)ccc2/C1=C1/Nc2ccccc2/C1=N\OCCN1CCCC1 [compound 20] | – | submicromolar range | 7.27 | nanomolar
Cl.Cl.O=C1Nc2cc(Br)ccc2/C1=C1/Nc2ccccc2/C1=N\OCCN1CCNCC1 [compound 22] | – | submicromolar range | – | picomolar
COCCN1CCN(CCO/N=C2/C(=C3/C(=O)Nc4cc(Br)ccc43)Nc3ccccc32)CC1 [compound 27] | – | submicromolar range | 6.96 | nanomolar
COCCN1CCN(CCO/N=C2/C(=C3/C(=O)Nc4cc(Br)ccc43)Nc3ccccc32)CC1.Cl.Cl [compound 28] | – | submicromolar range | 6.70 | nanomolar
O=C1Nc2cc(Br)ccc2/C1=C1/Nc2ccccc2/C1=N\OCCN1CCN(CCOCCO)CC1 [compound 29] | – | – | 7.85 | picomolar
Cl.Cl.O=C1Nc2cc(Br)ccc2/C1=C1/Nc2ccccc2/C1=N\OCCN1CCN(CCOCCO)CC1 [compound 30] | – | submicromolar range | – | –
O=C1Nc2ccccc2/C1=C1/Nc2cc(Br)ccc2C1=O [compound 57] | inactive | – | – | –
O=C1Nc2ccccc2/C1=C1/Nc2cc(Br)ccc2/C1=N\O [compound 58] | inactive | – | – | –
